Test results taken from US12630785B2, “Liquid fabric care compositions comprising capsules” (The Procter & Gamble Company, priority 2020, dated 2026).
One block for each molecule: values may come before it.

Assay: Capsule perfume leakage in liquid fabric enhancer (LFE), headspace SPME GC/MS
Format: physicochemical
Conditions: LFE Composition 1
Method: The testing of capsule leakage in liquid compositions (e.g., liquid fabric enhancer/“LFE” compositions and/or heavy-duty liquid/“HDL” detergents) is performed as follows. […] The 1 gram aliquot in the 7 ml vial is then mixed on a stirring plate for 24 h at 500 rpm, thereby ensuring that the capsules are broken by the grinding action of the stir bar against the bottom of the 7 ml vial. Optical microscopy can be used to verify that no more intact capsules remain. In case such capsules are found, the step is to repeated for an additional 24 h, or until all or almost all capsules are broken. Then, the formulation containing broken capsules is introduced into GC vials in a similar manner as for step (a). This yields total oil samples. […] It is to be noted that the capsule sample and the total oil sample are not analyzed on the same day, as there is a need to prepare the total oil sample after the capsule sample has been removed from storage. […] The perfume oil composition formulated herein is representative of the perfume oil composition that is present in the slurry. Then the free oil formulation is introduced into GC vials in a similar manner as for step (a). This yields reference samples, which must be used when analyzing both the capsule sample and the total oil sample. […] Two headspace vials are prepared for each sample. The sealed headspace vials are then allowed to equilibrate. Samples reach equilibrium after 3 hours at room temperature, but can be left to sit longer without detriment or change to the results, up until 24 hours after sealing the headspace vial. After equilibrating, the samples are analyzed by GC/MS. […] The perfume composition is analyzed by fast GC/MS in full scan mode. Ion extraction of the specific mass for each component is obtained. The leakage is calculated as follows, separately for the capsule sample and total oil sample, where “Area” denotes the area under the chromatogram peak corresponding to the PRM of interest: Once calculated for all PRMs for both the total oil sample and the capsule sample, the corrected PRM leakage can be calculated using the following formula: Once the corrected PRM leakage has been calculated for all PRMs, the Average leakage can be found by taking the arithmetic mean of each corrected PRM leakage. […] The resulting products are stored for one week at 35° C. At the end of the storage period, samples of each product composition are analyzed for perfume leakage out of the capsule using headspace analysis. The data is reported as a percentage, determined by comparing the amount of the individual perfume raw materials found in the headspace to the amount originally provided to the capsules.

[1] = PRM of Perfume 4 out of Comparative Example 9-1 capsules (per EP3078415A)
[2] = PRM of Perfume 4 out of Comparative Example 9-2 capsules (per EP3078415A, additional TEOS)
[3] = PRM of Perfume 4 out of Example 9-1 capsules (Sample E)
[4] = PRM of Perfume 3 out of Capsule Sample D
[5] = PRM of Perfume 2 out of Capsule Sample C

- Leakage (as %) after 1 week at 35° C. [1]: 34%
- Leakage (as %) after 1 week at 35° C. [2]: 28%
- Leakage (as %) after 1 week at 35° C. [3]: 3%
SMILES: CCCCCCOC(=O)c1ccccc1O [Hexyl Salicylate]

- Leakage (as %) after 1 week at 35° C. [1]: 22%
- Leakage (as %) after 1 week at 35° C. [2]: 36%
- Leakage (as %) after 1 week at 35° C. [3]: 7%
SMILES: CCCCCC/C(C=O)=C\c1ccccc1 [Hexylcinnamyl aldehyde]

- Leakage (as %) after 1 week at 35° C. [4]: 8%
SMILES: CC1=CC(C)C(C=O)CC1 (stereo not drawn) [Ligustral-1]

- Leakage (as %) after 1 week at 35° C. [1]: 46%
- Leakage (as %) after 1 week at 35° C. [2]: 61%
- Leakage (as %) after 1 week at 35° C. [3]: 30%
SMILES: CC(C=O)Cc1ccc(C(C)(C)C)cc1 (stereo not drawn) [Lilial]

- Leakage (as %) after 1 week at 35° C. [4]: 4%
SMILES: CCCCCCCCCC(C)C=O (stereo not drawn) [Methyl nonyl acetaldehyde]

- Leakage (as %) after 1 week at 35° C. [4]: 7%
SMILES: CC(=O)OC(C)c1ccccc1 (stereo not drawn) [Methyl phenyl carbinyl acetate]

- Leakage (as %) after 1 week at 35° C. [4]: 10%
SMILES: CC1=CCC(C(C)(C)O)CC1 (stereo not drawn) [alpha-Terpineol]

The next lines start with the molecule.

SMILES: CC(C)=CC1CC(C)CCO1 (stereo not drawn) [Rose Oxide]
- Leakage (as %) after 1 week at 35° C. [4]: 8%

SMILES: CCC=C(C)C(O)CCCCC (stereo not drawn) [Undecavertol]
- Leakage (as %) after 1 week at 35° C. [4]: 11%

SMILES: COC(=O)OC1CC/C=C\CCC1 (stereo not drawn) [[(4Z)-1-cyclooct-4-enyl] methyl carbonate]
- Leakage (as %) after 1 week at 35° C. [5]: 5%

SMILES: CC(=O)/C=C/C1=C(C)CCCC1(C)C [beta ionone]
- Leakage (as %) after 1 week at 35° C. [4]: 5%

SMILES: CCOC(=O)C1CCC(C(=O)OCC)CC1 (stereo not drawn) [diethyl 1,4-cyclohexane dicarboxylate]
- Leakage (as %) after 1 week at 35° C. [5]: 3%
